Reference: PubChem BioAssay (NCI)
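Results reflect a 48-hour exposure of cells in 96-well plates to compound at five concentrations. GI50 is the concentration that inhibits growth by half. TGI marks complete inhibition of growth.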

Assays:
Assay in all cases: NCI anticancer screen, dose series, 48 h
[1] = test system: OVCAR-3 ovarian
[2] = test system: SK-MEL-2 melanoma
[3] = test system: DU-145 prostate
[4] = test system: BT-549 breast
[5] = test system: MALME-3M melanoma
[6] = test system: COLO 205 colon
[7] = test system: SF-539 CNS
[8] = test system: UACC-62 melanoma
[9] = test system: U251 CNS
[10] = test system: NCI-H226 lung
[11] = test system: A498 renal
[12] = test system: OVCAR-5 ovarian
[13] = test system: OVCAR-4 ovarian
[14] = test system: 786-0 renal
[15] = test system: NCI-H23 lung
[16] = test system: TK-10 renal
[17] = test system: K-562 leukemia
[18] = test system: NCI-H460 lung
[19] = test system: MDA-MB-231 breast
[20] = test system: SK-MEL-5 melanoma
[21] = test system: LOX IMVI melanoma
[22] = test system: CCRF-CEM leukemia
[23] = test system: SK-OV-3 ovarian
[24] = test system: SN12C renal
[25] = test system: NCI/ADR-RES ovarian
[26] = test system: SNB-75 CNS
[27] = test system: HS 578T breast
[28] = test system: MOLT-4 leukemia
[29] = test system: RXF 393 renal
[30] = test system: M14 melanoma
[31] = test system: UACC-257 melanoma
[32] = test system: OVCAR-8 ovarian
[33] = test system: SF-268 CNS
[34] = test system: HCT-116 colon
[35] = test system: SNB-19 CNS
[36] = test system: A549 NSCLC
[37] = test system: KM12 colon
[38] = test system: ACHN renal
[39] = test system: SF-295 CNS
[40] = test system: SK-MEL-28 melanoma
[41] = test system: RPMI-8226 leukemia
[42] = test system: HT29 colon
[43] = test system: MDA-MB-435
[44] = test system: IGROV1 ovarian
[45] = test system: HOP-92 NSCLC
[46] = test system: EKVX NSCLC
[47] = test system: HL-60(TB) leukemia
[48] = test system: UO-31 renal
[49] = test system: SR leukemia
[50] = test system: MCF7 breast
[51] = test system: HOP-62 NSCLC
[52] = test system: HCC-2998 colon
[53] = test system: NCI-H522 lung
[54] = test system: HCT-15 colon
[55] = test system: CAKI-1 renal
[56] = test system: SW-620 colon
[57] = test system: PC-3 prostate

Compound: CCC[C@H](Nc1nc(-c2ccc(NC(=O)NCC)c(OC)c2)ncc1C)c1cccnc1
- GI50 [1]: 22.1 nM
- TGI [1]: 49.2 nM
- GI50 [2]: 47.7 nM
- TGI [2]: 20700 nM
- GI50 [3]: 28 nM
- TGI [3]: 75.3 nM
- GI50 [4]: 41.3 nM
- TGI [4]: 26000 nM
- GI50 [5]: 13800 nM
- TGI [5]: 49100 nM
- GI50 [6]: 28.2 nM
- TGI [6]: 73.6 nM
- GI50 [7]: 33.4 nM
- TGI [7]: 3870 nM
- GI50 [8]: 57.2 nM
- TGI [8]: > 48500 nM
- GI50 [9]: 39.5 nM
- TGI [9]: 17700 nM
- GI50 [10]: 53.1 nM
- TGI [10]: 25700 nM
- GI50 [11]: 32.2 nM
- TGI [11]: 864 nM
- GI50 [12]: 57.9 nM
- TGI [12]: > 100000 nM
- GI50 [13]: 69.1 nM
- TGI [13]: 41800 nM
- GI50 [14]: 45.3 nM
- TGI [14]: 12600 nM
- GI50 [15]: 44.4 nM
- TGI [15]: 6930 nM
- GI50 [16]: 14300 nM
- TGI [16]: 55100 nM
- GI50 [17]: 31 nM
- TGI [17]: 16400 nM
- GI50 [18]: 35.7 nM
- TGI [18]: 13300 nM
- GI50 [19]: 37.2 nM
- TGI [19]: 1720 nM
- GI50 [20]: 27.3 nM
- TGI [20]: 91.2 nM
- GI50 [21]: 41.5 nM
- TGI [21]: 13800 nM
- GI50 [22]: 32 nM
- GI50 [23]: 36.5 nM
- TGI [23]: 15000 nM
- GI50 [24]: 48.6 nM
- TGI [24]: 20500 nM
- GI50 [25]: 214 nM
- TGI [25]: 9970 nM
- GI50 [26]: 48.9 nM
- TGI [26]: 22800 nM
- GI50 [27]: 34.5 nM
- GI50 [28]: 35.9 nM
- TGI [28]: 13100 nM
- GI50 [29]: 41.5 nM
- TGI [29]: 20000 nM
- GI50 [30]: 28.2 nM
- TGI [30]: 82.4 nM
- GI50 [31]: 820 nM
- TGI [31]: 28800 nM
- GI50 [32]: 36.9 nM
- TGI [32]: 14600 nM
- GI50 [33]: 53.4 nM
- TGI [33]: 14700 nM
- GI50 [34]: 34.9 nM
- TGI [34]: 10500 nM
- GI50 [35]: 44.1 nM
- TGI [35]: > 84800 nM
- GI50 [36]: 37.8 nM
- TGI [36]: > 36200 nM
- GI50 [37]: 33.7 nM
- TGI [37]: 225 nM
- GI50 [38]: 72.1 nM
- TGI [38]: 35200 nM
- GI50 [39]: 25.3 nM
- TGI [39]: 67.8 nM
- GI50 [40]: 1140 nM
- TGI [40]: > 61600 nM
- GI50 [41]: 37 nM
- TGI [41]: 15100 nM
- GI50 [42]: 36.1 nM
- TGI [42]: 16900 nM
- GI50 [43]: 21.9 nM
- TGI [43]: 53.3 nM
- GI50 [44]: 56.6 nM
- TGI [44]: 24600 nM
- GI50 [45]: 236 nM
- TGI [45]: 12500 nM
- GI50 [46]: 62.1 nM
- TGI [46]: > 100000 nM
- GI50 [47]: 24.6 nM
- TGI [47]: 58.2 nM
- GI50 [48]: 277 nM
- TGI [48]: 17200 nM
- GI50 [49]: 30 nM
- TGI [49]: 1710 nM
- GI50 [50]: 36.5 nM
- TGI [50]: 29600 nM
- GI50 [51]: 63.8 nM
- TGI [51]: 39700 nM
- GI50 [52]: 29.5 nM
- TGI [52]: 874 nM
- GI50 [53]: 34.5 nM
- TGI [53]: 868 nM
- GI50 [54]: 112 nM
- TGI [54]: > 42500 nM
- GI50 [55]: 222 nM
- TGI [55]: 24000 nM
- GI50 [56]: 42.5 nM
- TGI [56]: > 88400 nM
- GI50 [57]: 47 nM
- TGI [57]: > 55600 nM
